Measured values reported in ChEMBL document CHEMBL1152263, “Perylene-conjugated pyrrole polyamide as a sequence-specific fluorescent probe” (Bioorg Med Chem, 2008).
Calls of active or inactive are those of the source. The rule behind the calls is not given here.

What was measured:
[1] = Binding affinity to AT-rich sequence of double strand DNA by fluorescence spectra
[2] = Binding affinity to ODN1/2 double strand DNA by fluorescence spectra

Compound: CC(=O)Nc1cc(C(=O)Nc2cc(C(=O)NCCC(=O)Nc3cc(C(=O)Nc4cc(C(=O)NCCC(=O)NCCCN(C)C)n(C)c4)n(C)c3)n(CC#Cc3ccc4c5cccc6cccc(c7cccc3c74)c65)c2)n(C)c1
- Activity [1]: Active
- Activity [2]: Active
